“And” between values parts separate entries of the source, which are not always exact repeats. Equal values may be shown once. Where a name gives a salt, the structure may show the parent alone. Read-outs that look alike come from different tables or passages of the source.
Experiments:
OATP1B1 [1] = target: T1, OATP1B1 (Homo sapiens, UniProt Q9Y6L6); experiment: Inhibition of FMTX uptake in CHO cells stably transfected with OATP1B1; assay type: cell-based; conditions: for IC50: CHO cells stably transfected with OATP1B1, 5 μM FMTX, 10 min, 37 °C, means ± SD of three independent experiments; for Correctness of prediction, first symbol (OATP1B1): inhibitor class from measured IC50 against the consensus prediction
T1 construct: host or cells: CHO (Chinese hamster ovary) cells, stably transfected
T1 sequence (Q9Y6L6 1-691): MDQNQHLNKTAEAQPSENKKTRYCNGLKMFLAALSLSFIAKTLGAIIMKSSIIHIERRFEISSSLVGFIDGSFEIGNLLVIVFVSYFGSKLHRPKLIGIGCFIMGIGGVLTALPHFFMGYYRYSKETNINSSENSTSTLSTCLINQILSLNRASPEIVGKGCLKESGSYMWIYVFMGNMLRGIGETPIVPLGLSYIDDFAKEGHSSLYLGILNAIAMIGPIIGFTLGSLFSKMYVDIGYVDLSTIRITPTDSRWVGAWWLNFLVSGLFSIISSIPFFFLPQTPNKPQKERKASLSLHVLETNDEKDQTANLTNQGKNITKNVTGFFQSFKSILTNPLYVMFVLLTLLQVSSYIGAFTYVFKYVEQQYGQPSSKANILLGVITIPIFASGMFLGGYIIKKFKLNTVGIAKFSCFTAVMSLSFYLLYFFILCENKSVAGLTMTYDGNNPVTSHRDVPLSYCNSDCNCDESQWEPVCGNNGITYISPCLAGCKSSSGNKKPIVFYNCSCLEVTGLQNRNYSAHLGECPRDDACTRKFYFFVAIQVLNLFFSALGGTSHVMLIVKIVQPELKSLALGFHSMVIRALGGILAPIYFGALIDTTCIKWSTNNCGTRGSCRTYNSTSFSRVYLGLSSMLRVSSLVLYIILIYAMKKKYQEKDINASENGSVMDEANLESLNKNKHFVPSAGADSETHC
Experimental: (§1) Chinese hamster ovary (CHO) cells that were stably transfected with OATP1B1 or OATP1B3 and wild-type CHO cells were provided by the University of Zurich, Switzerland, and have been extensively characterized previously.[24],[56],[57] Cells were grown in Dulbecco’s modified Eagle medium (DMEM) supplemented with 10% FCS, 50 μg/mL L-proline, 100 U/mL penicillin, and 100 μg/mL streptomycin. The culture media of the transfected CHO cells additionally contained 500 μg/mL Geneticin sulfate (G418) (Sigma-Aldrich, Munich, Germany). Media and supplements were obtained from Invitrogen (Karlsruhe, Germany). Cells were incubated at 5% CO2 and 37 °C. For uptake experiments, CHO cells were seeded in 24-well plates (BD Biosciences, Heidelberg, Germany) at a density of 25,000 cells/well. Uptake assays were generally performed on day 3 after seeding, when the cells had grown to confluence. 24 h before starting the transport experiments, cells were additionally treated with 5 mM sodium butyrate (Sigma-Aldrich, Munich, Germany) to induce gene expression. Prior to the uptake experiments, cells were rinsed twice with 2 mL of prewarmed (37 °C) uptake buffer (116.4 mM NaCl, 5.3 mM KCL, 1 mM NaH2PO4, 0.8 mM MgSO4, 5.5 mM D-glucose, and 20 mM Hepes, pH adjusted to 7.4). Uptake was initiated by adding 0.5 mL of uptake buffer containing 5 μM of the fluorescent OATP1B1/1B3 substrate FMTX[58] in the presence or absence of inhibitors. After 10 min culture at 37 °C, uptake was stopped by removing the uptake solution and washing the cells 3 times with ice-cold uptake buffer. The cells were then lysed with 0.5 mL of 0.5% Triton X-100 solution dissolved in PBS and placed on a plate shaker for 30 min. Fluorescence was measured in an Enspire Multimode plate reader (PerkinElmer, Waltham, MA) at an excitation wavelength of 485 and an emission wavelength of 528 nm.
(§2) IC50 values were determined by plotting the log inhibitor concentration against the net uptake rate and nonlinear regression of the data set using the equation [drawing 1] in which y is the net uptake rate (pmol/μg of protein/min), I is the inhibitor concentration (μM), s is the slope at the point of inversion, and a and b are the maximum and minimum values for cellular uptake (GraphPad Software, San Diego, CA, USA) . Net uptake was calculated for each inhibitor concentration as the difference in the uptake rates of the transporter-expressing and wild-type cell lines. Unless otherwise indicated, values are expressed as mean ± SD of three individual experiments. Significant differences from control values were determined using a Student’s paired t test at a significance level of p < 0.05.

OATP1B3 [2] = target: T2, OATP1B3 (Homo sapiens, UniProt Q9NPD5); experiment: Inhibition of FMTX uptake in CHO cells stably transfected with OATP1B3; assay type: cell-based; conditions: for Correctness of prediction, second symbol (OATP1B3): inhibitor class from measured IC50 against the consensus prediction
T2 construct: host or cells: CHO (Chinese hamster ovary) cells, stably transfected
T2 sequence (Q9NPD5 1-702): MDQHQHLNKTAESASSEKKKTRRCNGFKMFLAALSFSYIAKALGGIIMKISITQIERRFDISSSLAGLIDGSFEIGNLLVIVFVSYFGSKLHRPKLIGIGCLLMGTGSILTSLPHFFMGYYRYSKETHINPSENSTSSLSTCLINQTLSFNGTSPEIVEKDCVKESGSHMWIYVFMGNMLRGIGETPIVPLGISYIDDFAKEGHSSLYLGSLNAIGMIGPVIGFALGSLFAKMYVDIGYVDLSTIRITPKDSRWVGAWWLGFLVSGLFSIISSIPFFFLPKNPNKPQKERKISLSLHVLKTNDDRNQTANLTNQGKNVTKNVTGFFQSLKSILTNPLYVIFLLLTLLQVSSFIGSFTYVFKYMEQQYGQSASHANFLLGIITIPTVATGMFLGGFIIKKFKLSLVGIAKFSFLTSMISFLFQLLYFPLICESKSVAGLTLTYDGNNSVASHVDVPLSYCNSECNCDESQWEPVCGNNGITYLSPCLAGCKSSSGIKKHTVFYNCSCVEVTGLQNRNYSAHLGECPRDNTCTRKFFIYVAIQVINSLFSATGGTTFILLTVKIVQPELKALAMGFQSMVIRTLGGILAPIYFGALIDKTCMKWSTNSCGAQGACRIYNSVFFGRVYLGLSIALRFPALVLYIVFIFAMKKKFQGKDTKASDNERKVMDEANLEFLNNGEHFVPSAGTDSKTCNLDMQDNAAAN
Experimental: as §1, §2

[3] = cited from earlier work
OATP1B3 [4] = conditions: commercial library of 640 FDA-approved drugs; cited from earlier work
OATP1B1 [5] = test system: OATP1B1; set-up: method as in PMID 25603031; conditions: commercial library of 640 FDA-approved drugs; cited from earlier work
OATP1B1 [6] = test system: OATP1B1; set-up: method as in PMID 22541068; conditions: cited from earlier work
OATP1B1 [7] = test system: OATP1B1; set-up: method as in PMID 23571415; conditions: cited from earlier work
[8] = CHO cells stably transfected with OATP1B3, 5 μM FMTX, 10 min, 37 °C, means ± SD of three independent experiments, read-out: IC50 (μM) OATP1B3
[9] = remark printed after the IC50 value, read-out: OATP1B3 inhibition, remark in the IC50 cell

| SMILES | IC50 (OATP1B1 [1]) | IC50 (OATP1B3 [2]; [8]) | OATP1B1 inhibition, result in words (OATP1B1 [1]; false negative of the OATP1B1 consensus model) | IC50 (OATP1B3 [2]; [9]) | Correctness of prediction, first symbol (OATP1B1) (OATP1B1 [1]) | Correctness of prediction, second symbol (OATP1B3) (OATP1B3 [2]) | hepatotoxicity, literature reports [3] | hyperbilirubinemia, reports in online sources and literature [3] | rank among OATP1B3 inhibitors in the screen of van de Steeg et al. (OATP1B3 [4]) | rank among OATP1B1 inhibitors in the screen of van de Steeg et al. (OATP1B1 [5]) | effect on liver injury, literature report ([3]; diabetic patients) | hepatic serum enzymes, literature report [3] | OATP1B1 inhibition class as evaluated by Karlgren et al. (OATP1B1 [6]) | OATP1B1 inhibition class as annotated by De Bruyn et al. (OATP1B1 [7]) |
| --- | --- | --- | --- | --- | --- | --- | --- | --- | --- | --- | --- | --- | --- | --- |
| CC(C)C[C@H](NC(=O)[C@H](CCc1ccccc1)NC(=O)CN1CCOCC1)C(=O)N[C@@H](Cc1ccccc1)C(=O)N[C@@H](CC(C)C)C(=O)[C@@]1(C)CO1 [Carfilzomib] | 0.38 ± 0.12 µM | 0.9 ± 0.17 µM |  |  | +++,+++ (strong inhibitor (IC50 values less than 1 μM)) | +++,+++ (strong inhibitor (IC50 values less than 1 μM)) |  |  |  |  |  |  |  |  |
| Cc1cc2nc3c(=O)[nH]c(=O)nc-3n(C[C@H](O)[C@H](O)[C@H](O)COP(=O)(O)OP(=O)(O)OC[C@H]3O[C@@H](n4cnc5c(N)ncnc54)[C@H](O)[C@@H]3O)c2cc1C [Flavin adenine dinucleotide] | 6.62 ± 1.15 µM | 10 ± 0.78 µM | OATP1B1 inhibitor |  | x (wrong class prediction) | + (moderate inhibitors (IC50 values between 5 and 10 μM)) |  |  |  |  |  |  |  |  |
| CCC(=O)O[C@@H](O[P@](=O)(CCCCc1ccccc1)CC(=O)N1C[C@H](C2CCCCC2)C[C@H]1C(=O)O)C(C)C [Fosinopril sodium] | 6.28 ± 1.13 µM | 5.19 ± 0.98 µM |  |  | +,+ (moderate inhibitors (IC50 values between 5 and 10 μM)) | +,+ (moderate inhibitors (IC50 values between 5 and 10 μM)) | some literature reports for hepatotoxicity | causing hyperbilirubinemia | 20 strongest OATP1B1 and OATP1B3 inhibitors | 20 strongest OATP1B1 and OATP1B3 inhibitors |  |  |  |  |
| CN(C)c1cccc2c(S(=O)(=O)N[C@@H](Cc3ccc(OS(=O)(=O)c4cccc5c(N(C)C)cccc45)cc3)C(=O)O)cccc12 [N,O-Didansyl-L-Tyrosine] | 6.07 ± 0.56 µM | 2.94 ± 0.75 µM |  |  | + (moderate inhibitors (IC50 values between 5 and 10 μM)) | ++ (moderately strong inhibitor (IC50 values between 1 and 5 μM)) |  |  |  |  |  |  |  |  |
| CO[C@H]1C[C@@H]2CC[C@@H](C)[C@@](O)(O2)C(=O)C(=O)N2CCCC[C@H]2C(=O)O[C@H]([C@H](C)C[C@@H]2CC[C@@H](O)[C@H](OC)C2)CC(=O)[C@H](C)/C=C(\C)[C@@H](O)[C@@H](OC)C(=O)[C@H](C)C[C@H](C)/C=C/C=C/C=C/1C [Rapamycin (Sirolimus)] | 0.62 ± 0.19 µM |  |  |  | +++,+++ (strong inhibitor (IC50 values less than 1 μM)) | +++,+++ (strong inhibitor (IC50 values less than 1 μM)) | some literature reports for hepatotoxicity | causing hyperbilirubinemia | 20 strongest OATP1B1 and OATP1B3 inhibitors | 20 strongest OATP1B1 and OATP1B3 inhibitors |  |  |  |  |
| O=C(O)c1cc(/N=N/c2ccc(S(=O)(=O)Nc3ccccn3)cc2)ccc1O [sulfasalazine] |  |  |  |  |  |  |  |  |  |  |  |  | inhibitor | noninhibitor |

The next lines start with results.

| IC50 (OATP1B1 [1]) | IC50 (OATP1B3 [2]; [8]) | OATP1B1 inhibition, result in words (OATP1B1 [1]; false negative of the OATP1B1 consensus model) | IC50 (OATP1B3 [2]; [9]) | SMILES | Correctness of prediction, first symbol (OATP1B1) (OATP1B1 [1]) | Correctness of prediction, second symbol (OATP1B3) (OATP1B3 [2]) | hepatotoxicity, literature reports [3] | hyperbilirubinemia, reports in online sources and literature [3] | rank among OATP1B3 inhibitors in the screen of van de Steeg et al. (OATP1B3 [4]) | rank among OATP1B1 inhibitors in the screen of van de Steeg et al. (OATP1B1 [5]) | effect on liver injury, literature report ([3]; diabetic patients) | hepatic serum enzymes, literature report [3] | OATP1B1 inhibition class as evaluated by Karlgren et al. (OATP1B1 [6]) | OATP1B1 inhibition class as annotated by De Bruyn et al. (OATP1B1 [7]) |
| --- | --- | --- | --- | --- | --- | --- | --- | --- | --- | --- | --- | --- | --- | --- |
| 0.32 ± 0.07 µM | 1.12 ± 0.2 µM |  |  | CCCCc1oc2ccc(NS(C)(=O)=O)cc2c1C(=O)c1ccc(OCCCN(CCCC)CCCC)cc1 [Dronedarone hydrochlorid e] | +++ (strong inhibitor (IC50 values less than 1 μM)) | ++ (moderately strong inhibitor (IC50 values between 1 and 5 μM)) | some literature reports for hepatotoxicity | causing hyperbilirubinemia |  |  |  |  |  |  |
| 7.45 ± 1.64 µM | 1.17 ± 0.31 µM |  |  | COc1ccc2c(c1)C(=O)N(CCc1ccc(S(=O)(=O)NC(=O)NC3CCCCC3)cc1)C(=O)C2(C)C [Gliquidone] | + (moderate inhibitors (IC50 values between 5 and 10 μM)) | ++ (moderately strong inhibitor (IC50 values between 1 and 5 μM)) |  |  |  |  | improve liver injury |  |  |  |
| 0.37 ± 0.19 µM | > 10 µM and 33.8 µM |  | > 10 µM | CS(=O)(=O)CCNCc1ccc(-c2ccc3ncnc(Nc4ccc(OCc5cccc(F)c5)c(Cl)c4)c3c2)o1 [Lapatinib] | +++ (strong inhibitor (IC50 values less than 1 μM)) | -+ (slight inhibitors (IC50 values above 10 μM)) | some literature reports for hepatotoxicity | causing hyperbilirubinemia |  |  |  |  |  |  |
| 0.34 ± 0.09 µM | > 10 µM and 30.8 µM |  | > 10 µM | CC(=O)Nc1cccc(-n2c(=O)n(C3CC3)c(=O)c3c(Nc4ccc(I)cc4F)n(C)c(=O)c(C)c32)c1 [Trametinib] | +++ (strong inhibitor (IC50 values less than 1 μM)) | -+ (slight inhibitors (IC50 values above 10 μM)) |  |  |  |  |  | elevating hepatic serum enzymes |  |  |
| 7.84 ± 0.49 µM | 4.96 ± 0.92 µM |  |  | COc1cc(C(=O)NS(=O)(=O)c2ccccc2C)ccc1Cc1cn(C)c2ccc(NC(=O)OC3CCCC3)cc12 [Zafirlukast] | + (moderate inhibitors (IC50 values between 5 and 10 μM)) | ++ (moderately strong inhibitor (IC50 values between 1 and 5 μM)) | some literature reports for hepatotoxicity | causing hyperbilirubinemia |  |  |  |  |  |  |

— PMC4674819, “Identification of Novel Inhibitors of Organic Anion Transporting Polypeptides 1B1 and 1B3 (OATP1B1 and OATP1B3) Using a Consensus Vote of Six Classification Models” (Molecular Pharmaceutics, 2015)
